Assay results taken from patent US20180193289A1, “PROTOTYPICAL MOLECULAR PHARMACOLOGIC PROFILE OF FENDILINE AGAINST NEURODEGENERATIVE AND NEURODEVELOPMENTAL DISEASES” (priority 2016, published 2018).

Experiments:
[1] = system: cholinergic muscarinic receptors; assay: modulation of muscarinic receptors; conditions: σ1 induced
[2] = system: mice; assay: Maximal Electroshock tonic extension; conditions: mouse, in vivo
[3] = system: GABA (B) receptors; assay: allosteric modulation of GABA (B) receptors
[4] = system: N-methyl-D-aspartic acid (NMDA) glutamatergic receptors; assay: allosteric modulation of NMDA receptors; conditions: σ1 induced
[5] = system: mice; assay: Pentylenetetrazole (PTZ) induced behavioral effects and seizures in mice; format: in vivo; conditions: Fendiline 1.0 to 50 mg/kg (po), PTZ 10 to 70 mg/kg (ip)
Protocol: In good agreement with the above receptors affinities and its molecular pharmacological properties, Fendiline, at 1.0 to 50 mg/kg, (po), in mice antagonized all the behavioral effects (in mice) corresponding to the symptoms, in humans, announcing the development of the neurodegenerative and neurodevelopmental diseases, i.e., anxiety, fear, social disconnection, agressivity, compulsive reactions, hypermotility, stereotypic activity, pain, lethargy and seizures, appearing at various degrees according to the amplitude of the Glutamate/GABA imbalance and to the brain regions (Basal Ganglia, Hippocampus, Cortex) affected by the above imbalance. Indeed, all the above behavioral effects (obtained, in mice, by administration of the GABAergic antagonist Pentylenetetrazole (PTZ) at 10 to 70 mg/kg, intraperitoneal (ip): with 10 to 40 mg/kg (ip) giving fear, anxiety, social disconnection, and agressivity, hypermotility and stereotypies—the latter being better expressed by previous (reserpine induced) hypersensibilisation of the brain DA receptors—and seizures (obtained at 50 to 70 mg/kg (ip) of PTZ), were antagonized by Fendiline at 1.0 to 50 mg/kg (po).

[6] = molecular target: T1, sigma-1(σ1) receptor (Mus musculus, UniProt O55242); assay: sigma-1 agonistic/antagonistic activity in mice; format: in vivo
T1 construct: from tissue; host or cells: whole animal (mice, oral administration)
T1 sequence (O55242 whole entry): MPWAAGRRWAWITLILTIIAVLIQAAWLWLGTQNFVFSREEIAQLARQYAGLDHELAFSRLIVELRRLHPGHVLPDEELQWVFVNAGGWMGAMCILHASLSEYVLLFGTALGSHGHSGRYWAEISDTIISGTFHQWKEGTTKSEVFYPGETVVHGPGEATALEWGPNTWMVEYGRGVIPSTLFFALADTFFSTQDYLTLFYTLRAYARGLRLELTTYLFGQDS

[7] = system: sodium channels; assay: allosteric modulation of sodium channels; conditions: σ1 induced
[8] = neuropathic pain animal models; format: in vivo; conditions: appropriate animal models
[9] = system: mice; assay: PTZ clonic convulsions and fatal tonic crises in mice; format: in vivo
[10] = system: GABA (A) receptors; assay: allosteric modulation of GABA (A) receptors

CC(NCCC(c1ccccc1)c1ccccc1)c1ccccc1 (stereo not shown) [Fendiline, 3,3-diphenyl-N-(1-phenylethyl) propan-1-amine]
modulation of cholinergic muscarinic receptors [1]: discreet negative modulation
protection against fatal tonic crises (tonic extensions), Maximal Electrochock [2]: did not protect
modulation of GABA (B) receptors [3]: allosteric positive modulation
modulation of NMDA glutamatergic receptors [4]: negative allosteric modulations
effect on PTZ induced behavioral effects (fear, anxiety, social disconnection, agressivity, hypermotility, stereotypies, seizures) [5]: antagonized
sigma-1 activity at low doses ([6]; 0,003 to 1.0 mg/kg per os (po), in mice): partial agonistic activity
sigma-1 activity at higher doses ([6]; more than 1.0 mg/kg (po) in mice): antagonistic
sigma-1 intrinsic activity ([6]; mouse, in vivo): low intrinsic activity
modulation of sodium channels [7]: negative allosteric modulations
effect against neuropathic pain [8]: analgesic effect
protection against fatal tonic crises (tonic extensions), high doses of PTZ ([9]; PTZ more than 80 mg/kg (ip), in mice): did not protect
protection against PTZ clonic convulsions ([9]; mice): did not protect
modulation of GABA (A) receptors [10]: allosteric positive modulation
